pEC50: −log10 of the molar value.
Key:
[1] = biological target: full length human FXR protein (Homo sapiens (Human), UniProt Q96RI1); assay: FXR cellular assay (FXR-SRCP β-gal enzyme fragment complementation in CHO-K1 cells, chemiluminescence); format: cell-based; conditions: CHO-K1 cells with SRCP-EA and ProLink-labeled FXR, 0-10 micromolar compound, 37° C. for 6h, read-out: EC50 FXR-cell Luminescence/
Description: A cell based FXR assay was used to detect protein-protein interactions between an activated (ligand-bound), full length human FXR protein and a nuclear fusion protein containing a Steroid Receptor Coactivator Peptide (SCRP) domain. In this approach, two weakly complementing fragments of the 3-gal enzyme were expressed within stably transfected Chinese Hamster Ovary (CHO-K1) cells. The complementing fragments of the 3-gal enzyme (ProLink, PK; and Enzyme Acceptor, EA) were translationally fused to the C-terminus of a full-length FXR and to the SRCP, respectively. Complementation was driven by the protein-protein interaction between SRCP-EA and a ProLink-labeled FXR. Upon FXR-SRCP binding, the two fragments of 3-gal complement, forming a functional enzyme capable of hydrolyzing a substrate molecule and generating a chemiluminescent signal.
CHO-K1 cells containing SRCP-EA and ProLink-labeled FXR were plated in 384-well microplates and incubated at 37° C. overnight. A positive control FXR agonist, GW4064 (0-10 micromolar), or test compounds (0-10 micromolar) were added to plated cells and incubated at 37° C. for 6h (final DMSO vehicle concentration was 1%). The assay signal was generated by addition of 50% (v/v) detection reagent (19:5:1, cell assay buffer: substrate reagent 1: substrate reagent 2, DiscoverX) followed by incubation for 1h at ambient room temperature. Microplates were analyzed using an Envision reader (PerkinElmer Life and Analytical Sciences, Signal=chemiluminescence).

[2] = biological target: ligand binding domain (LBD) of recombinant human FXR (Homo sapiens (Human), UniProt Q96RI1); assay: FXR cell free coactivator (SRC-1) recruitment assay, TR-FRET; conditions: FXR LBD (amino acids 244-476) with labeled SRC-1 domain, 25° C. for 60 minutes, activity relative to CDCA maximum; read-out: EC50 FXR- Biochemical TR-FRET/μM
ligand binding domain (LBD) of recombinant human FXR, sequence (Q96RI1 254-486): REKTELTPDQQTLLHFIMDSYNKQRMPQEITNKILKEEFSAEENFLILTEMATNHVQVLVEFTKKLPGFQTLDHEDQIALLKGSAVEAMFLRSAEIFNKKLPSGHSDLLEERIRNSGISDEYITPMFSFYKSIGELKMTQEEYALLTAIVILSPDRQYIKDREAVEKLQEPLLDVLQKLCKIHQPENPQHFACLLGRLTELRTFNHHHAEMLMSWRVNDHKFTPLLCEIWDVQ
ligand binding domain (LBD) of recombinant human FXR, sequence (Q15788 whole entry partner, the tested form may be a part): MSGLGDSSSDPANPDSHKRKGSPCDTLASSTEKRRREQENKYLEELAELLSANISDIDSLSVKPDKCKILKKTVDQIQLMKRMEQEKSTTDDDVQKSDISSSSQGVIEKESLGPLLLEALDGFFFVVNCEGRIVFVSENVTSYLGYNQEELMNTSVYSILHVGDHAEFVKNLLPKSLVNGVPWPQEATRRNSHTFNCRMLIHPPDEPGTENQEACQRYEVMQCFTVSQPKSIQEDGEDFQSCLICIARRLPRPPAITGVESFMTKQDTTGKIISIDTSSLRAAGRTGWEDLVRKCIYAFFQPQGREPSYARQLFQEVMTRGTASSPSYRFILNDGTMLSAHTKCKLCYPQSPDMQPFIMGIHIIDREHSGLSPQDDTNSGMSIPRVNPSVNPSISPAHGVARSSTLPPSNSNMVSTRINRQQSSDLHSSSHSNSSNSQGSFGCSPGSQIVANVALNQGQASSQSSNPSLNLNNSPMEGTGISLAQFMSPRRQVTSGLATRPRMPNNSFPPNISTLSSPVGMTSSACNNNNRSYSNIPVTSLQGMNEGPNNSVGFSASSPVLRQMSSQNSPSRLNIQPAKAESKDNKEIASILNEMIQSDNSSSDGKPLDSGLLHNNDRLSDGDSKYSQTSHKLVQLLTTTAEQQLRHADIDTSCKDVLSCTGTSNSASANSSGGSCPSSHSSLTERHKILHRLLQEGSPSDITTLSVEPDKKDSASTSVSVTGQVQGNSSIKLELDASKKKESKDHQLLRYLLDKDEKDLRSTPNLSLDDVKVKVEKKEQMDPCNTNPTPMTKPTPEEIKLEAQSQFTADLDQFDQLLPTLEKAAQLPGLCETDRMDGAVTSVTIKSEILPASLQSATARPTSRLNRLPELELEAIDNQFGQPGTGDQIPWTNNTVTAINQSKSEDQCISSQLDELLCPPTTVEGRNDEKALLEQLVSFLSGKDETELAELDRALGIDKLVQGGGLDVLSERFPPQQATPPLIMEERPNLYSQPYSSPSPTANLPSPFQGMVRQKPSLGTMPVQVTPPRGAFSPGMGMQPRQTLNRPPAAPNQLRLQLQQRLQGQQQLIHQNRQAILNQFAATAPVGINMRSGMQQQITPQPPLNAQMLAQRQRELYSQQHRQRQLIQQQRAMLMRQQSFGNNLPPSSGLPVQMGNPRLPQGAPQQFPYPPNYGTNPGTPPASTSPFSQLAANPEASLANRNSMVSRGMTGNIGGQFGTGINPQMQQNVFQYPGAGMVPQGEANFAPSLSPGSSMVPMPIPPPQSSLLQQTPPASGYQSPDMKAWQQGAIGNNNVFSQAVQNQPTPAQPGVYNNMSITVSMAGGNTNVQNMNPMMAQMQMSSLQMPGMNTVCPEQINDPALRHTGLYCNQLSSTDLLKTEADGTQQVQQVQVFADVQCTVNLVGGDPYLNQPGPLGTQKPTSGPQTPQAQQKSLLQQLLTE
Protocol: A cell free coactivator recruitment assay was developed for FXR, to measure the functional potency of novel FXR compounds. In this assay, novel FXR compounds were bound to the ligand binding domain (LBD) of recombinant human FXR. The ability of this liganded homodimeric complex to recruit the co-activator protein steroid receptor coactivator 1 (SRC-1) was measured using Time-Resolved Fluorescence Resonance Energy Transfer (TR-FRET).
The LBD of human FXR (amino acids 244-476) was cloned into an expression vector for protein expression in SF9 insect cells. Purified FXR LBD was incubated in TR-FRET coregulator buffer G (Eurofins) with test compounds (0-10 micromolar) and a labeled nuclear receptor interaction domain of SRC-1 at 25° C. for 60 minutes (final DMSO vehicle concentration was 1.2%). Assays were analyzed using an Envision TR-FRET reader (PerkinElmer Life and Analytical Sciences). Compound activity at each concentration was defined as a percentage of the maximal activity of the natural FXR ligand agonist chenodeoxycholic acid (CDCA) generating a dose response curve.

full length human FXR protein, sequence (Q96RI1 whole entry, the tested form may be a part): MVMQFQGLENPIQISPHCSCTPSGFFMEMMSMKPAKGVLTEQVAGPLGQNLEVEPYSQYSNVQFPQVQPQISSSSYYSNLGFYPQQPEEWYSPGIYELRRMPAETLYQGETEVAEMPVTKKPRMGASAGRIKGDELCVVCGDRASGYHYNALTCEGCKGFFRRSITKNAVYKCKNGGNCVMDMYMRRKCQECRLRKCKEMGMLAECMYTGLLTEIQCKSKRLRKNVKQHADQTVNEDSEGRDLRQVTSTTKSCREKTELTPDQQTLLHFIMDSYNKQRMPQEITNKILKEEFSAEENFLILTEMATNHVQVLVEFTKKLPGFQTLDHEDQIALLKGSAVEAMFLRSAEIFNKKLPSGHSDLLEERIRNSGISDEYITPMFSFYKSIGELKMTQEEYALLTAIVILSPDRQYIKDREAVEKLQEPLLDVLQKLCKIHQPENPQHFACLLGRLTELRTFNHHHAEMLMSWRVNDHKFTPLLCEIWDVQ

| pEC50 [1] | EC50 [2] [µM] | Compound |
| --- | --- | --- |
| 7.08 | 0.0035 | O=c1[nH]c(-c2ccc(N3CCC(OCc4c(-c5c(Cl)cccc5Cl)noc4C4CC4)CC3)cc2F)no1 [Example 13, 3-(4-(4-((5-cyclopropyl-3-(2,6-dichlorophenyl)isoxazol-4-yl)methoxy)piperidin-1-yl)-2-fluorophenyl)-1,2,4-oxadiazol-5(4H)-one] |
| 5.80 | 0.175 | O=c1[nH]c(-c2ccc(N3CCC(OCc4c(-c5c(Cl)cccc5Cl)noc4C4CC4)CC3)cn2)no1 [Example 9, 3-(5-(4-((5-cyclopropyl-3-(2,6-dichlorophenyl)isoxazol-4-yl)methoxy)piperidin-1-yl)pyridin-2-yl)-1,2,4-oxadiazol-5(4H)-one] |
| 7.26 | 0.0045 | C[C@@H]1C[C@H](OCc2c(-c3ccccc3Cl)noc2C2CC2)CCN1c1ccc(-c2noc(=O)[nH]2)cn1 [Example 72, 3-(6-((2R,4R)-4-((3-(2-chlorophenyl)-5-cyclopropylisoxazol-4-yl)methoxy)-2-methylpiperidin-1-yl)pyridin-3-yl)-1,2,4-oxadiazol-5(4H)-one] |
| 6.47 | 0.0416 | O=c1[nH]nc(-c2ccc(N3CCC(OCc4c(-c5c(Cl)cccc5Cl)noc4C4CC4)CC3)cc2F)o1 [Example 48, 5-(4-(4-((5-cyclopropyl-3-(2,6-dichlorophenyl)isoxazol-4-yl)methoxy)piperidin-1-yl)-2-fluorophenyl)-1,3,4-oxadiazol-2(3H)-one] |
| 6.05 | 0.0431 | O=c1[nH]c(-c2ncc(N3CCC(OCc4c(-c5c(Cl)cccc5Cl)noc4C4CC4)CC3)s2)no1 [Example 56, 3-(5-(4-((5-cyclopropyl-3-(2,6-dichlorophenyl)isoxazol-4-yl)methoxy)piperidin-1-yl)thiazol-2-yl)-1,2,4-oxadiazol-5(4H)-one] |
| 6.58 | – | O=c1cc(-c2ccc(N3CCC(OCc4c(-c5c(Cl)cccc5Cl)noc4C4CC4)C(F)(F)C3)cc2)o[nH]1 (stereo not drawn) [Example 87, 5-(4-(4-((5-cyclopropyl-3-(2,6-dichlorophenyl)isoxazol-4-yl)methoxy)-3,3-difluoropiperidin-1-yl)phenyl)isoxazol-3(2H)-one] |
| 6.12 | – | N#Cc1nn(-c2ccc(N3CCC(OCc4c(-c5ccccc5OC(F)(F)F)noc4C4CC4)CC3)cc2)c(=O)[nH]c1=O [Example 85, 2-(4-(4-((5-cyclopropyl-3-(2-(trifluoromethoxy)phenyl)isoxazol-4-yl)methoxy)piperidin-1-yl)phenyl)-3,5-dioxo-2,3,4,5-tetrahydro-1,2,4-triazine-6-carbonitrile] |
| 7.16 | – | O=c1[nH]c(-c2ccc(N3[C@@H]4CC[C@H]3C[C@@H](OCc3c(-c5ccccc5Cl)noc3C3CC3)C4)nc2)no1 [Example 77, 3-(6-((1R,3r,5S)-3-((3-(2-chlorophenyl)-5-cyclopropylisoxazol-4-yl)methoxy)-8-azabicyclo[3.2.1]octan-8-yl)pyridin-3-yl)-1,2,4-oxadiazol-5(4H)-one] |
| 6.51 | – | O=c1[nH]c(-c2ccc(N3CC[C@@H](OCc4c(-c5ccccc5OC(F)(F)F)noc4C4CC4)[C@H](F)C3)cc2)no1 [Example 79, 3-(4-((3R,4R)-4-((5-cyclopropyl-3-(2-(trifluoromethoxy)phenyl)isoxazol-4-yl)methoxy)-3-fluoropiperidin-1-yl)phenyl)-1,2,4-oxadiazol-5(4H)-one] |
| 5.74 | – | N#Cc1nn(-c2ccc(N3CCC(OCc4c(-c5c(Cl)cccc5Cl)noc4C4CC4)CC3)nc2)c(=O)[nH]c1=O [Example 82, 2-(6-(4-((5-cyclopropyl-3-(2,6-dichlorophenyl)isoxazol-4-yl)methoxy)piperidin-1-yl)pyridin-3-yl)-3,5-dioxo-2,3,4,5-tetrahydro-1,2,4-triazine-6-carbonitrile] |
| 6.34 | – | O=c1cnn(-c2ccc(N3[C@@H]4CC[C@H]3C[C@@H](OCc3c(-c5ccccc5OC(F)(F)F)noc3C3CC3)C4)cc2)c(=O)[nH]1 [Example 88, 2-(4-((1R,3r,5S)-3-((5-cyclopropyl-3-(2-(trifluoromethoxy)phenyl)isoxazol-4-yl)methoxy)-8-azabicyclo[3.2.1]octan-8-yl)phenyl)-1,2,4-triazine-3,5(2H,4H)-dione] |
| 6.71 | – | C[C@@H]1C[C@H](OCc2c(-c3ccccc3OC(F)(F)F)noc2C2CC2)CCN1c1ccc(-c2noc(=O)[nH]2)cn1 [Example 76, 3-(6-((2R,4R)-4-((5-cyclopropyl-3-(2-(trifluoromethoxy)phenyl)isoxazol-4-yl)methoxy)-2-methylpiperidin-1-yl)pyridin-3-yl)-1,2,4-oxadiazol-5(4H)-one] |
| 5.28 | – | N#Cc1n[nH]c(=O)n(-c2ccc(N3CCC(OCc4c(-c5c(Cl)cccc5Cl)noc4C4CC4)CC3)nc2)c1=O [Example 83, 4-(6-(4-((5-cyclopropyl-3-(2,6-dichlorophenyl)isoxazol-4-yl)methoxy)piperidin-1-yl)pyridin-3-yl)-3,5-dioxo-2,3,4,5-tetrahydro-1,2,4-triazine-6-carbonitrile] |
| 6.76 | – | O=c1cc(-c2ccc(N3[C@@H]4CC[C@H]3C[C@@H](OCc3c(-c5ccccc5OC(F)(F)F)noc3C3CC3)C4)cc2)o[nH]1 [Example 81, 5-(4-((1R,3r,5S)-3-((5-cyclopropyl-3-(2-(trifluoromethoxy)phenyl)isoxazol-4-yl)methoxy)-8-azabicyclo[3.2.1]octan-8-yl)phenyl)isoxazol-3(2H)-one] |
| 6.81 | – | O=c1[nH]c(-c2ccc(N3[C@@H]4CC[C@H]3C[C@@H](OCc3c(-c5c(F)cccc5F)noc3C3CC3)C4)nc2)no1 [Example 78, 3-(6-((1R,3r,5S)-3-((5-cyclopropyl-3-(2,6-difluorophenyl)isoxazol-4-yl)methoxy)-8-azabicyclo[3.2.1]octan-8-yl)pyridin-3-yl)-1,2,4-oxadiazol-5(4H)-one] |
| 5.81 | – | O=c1cc(-c2ccc(N3CCC(OCc4c(-c5ccccc5OC(F)(F)F)noc4C4CC4)C(F)(F)C3)cc2)o[nH]1 (stereo not drawn) [Example 84, 5-(4-(4-((5-cyclopropyl-3-(2-(trifluoromethoxy)phenyl)isoxazol-4-yl)methoxy)-3,3-difluoropiperidin-1-yl)phenyl)isoxazol-3(2H)-one] |
| 6.42 | – | O=c1[nH]c(-c2ccc(N3CCC(OCc4c(-c5ccccc5OC(F)(F)F)noc4C4CC4)CC3)nc2)no1 [Example 75, 3-(6-(4-((5-cyclopropyl-3-(2-(trifluoromethoxy)phenyl)isoxazol-4-yl)methoxy)piperidin-1-yl)pyridin-3-yl)-1,2,4-oxadiazol-5(4H)-one] |
| 6.19 | – | O=c1[nH]c(-c2ccc(N3CC[C@H](OCc4c(-c5ccccc5OC(F)(F)F)noc4C4CC4)[C@@H](F)C3)cc2)no1 [Example 80, 3-(4-((3S,4S)-4-((5-cyclopropyl-3-(2-(trifluoromethoxy)phenyl)isoxazol-4-yl)methoxy)-3-fluoropiperidin-1-yl)phenyl)-1,2,4-oxadiazol-5(4H)-one] |
| 4.64 | – | N#Cc1n[nH]c(=O)n(-c2ccc(N3CCC(OCc4c(-c5ccccc5OC(F)(F)F)noc4C4CC4)CC3)cc2)c1=O [Example 86, 4-(4-(4-((5-cyclopropyl-3-(2-(trifluoromethoxy)phenyl)isoxazol-4-yl)methoxy)piperidin-1-yl)phenyl)-3,5-dioxo-2,3,4,5-tetrahydro-1,2,4-triazine-6-carbonitrile] |
| 6.00 | – | N#Cc1nn(-c2ccc(N3[C@@H]4CC[C@H]3C[C@@H](OCc3c(-c5ccccc5OC(F)(F)F)noc3C3CC3)C4)cc2)c(=O)[nH]c1=O [Example 89, 2-(4-((1R,3r,5S)-3-((5-cyclopropyl-3-(2-(trifluoromethoxy)phenyl)isoxazol-4-yl)methoxy)-8-azabicyclo[3.2.1]octan-8-yl)phenyl)-3,5-dioxo-2,3,4,5-tetrahydro-1,2,4-triazine-6-carbonitrile] |

| Compound | pEC50 [1] | EC50 [2] [µM] |
| --- | --- | --- |
| O=c1[nH]c(-c2ccc(N3[C@@H]4CC[C@H]3C[C@@H](OCc3c(-c5ccccc5OC(F)(F)F)noc3C3CC3)C4)nc2)no1 [Example 66, 3-(6-((1R,3r,5S)-3-((5-cyclopropyl-3-(2-(trifluoromethoxy)phenyl)isoxazol-4-yl)methoxy)-8-azabicyclo[3.2.1]octan-8-yl)pyridin-3-yl)-1,2,4-oxadiazol-5(4H)-one] | 6.61 | 0.003 |
